This note sets out measurements from patent publication US7365096B2, “Methods for selectively inhibiting Janus tyrosine kinase 3 (Jak3)” (Board of Regents, The University of Texas System, priority 2002, dated 2008).

“And” between values parts separate entries of the source, which are not always exact repeats. Identical values can stand only once. “Also recorded” adds a separate entry of the source.

The test system of one assay is Stat5a/b. Put plainly: IL-2 activated Stat5a/b tyrosine phosphorylation in YT cells (Western blot). The class given is cell-based, human. The conditions noted are these: phospho-Western blots. As for the experimental part: (§1) Solubilization of membrane proteins, immunoprecipitation, and Western blot analysis. Frozen cell pellets were thawed on ice and solubilized in 1% TX-100 lysis buffer (10^8 cells/ml) and clarified by centrifugation, as previously described.^16 For human T-cells, supernates were incubated rotating end over end for 2 hours at 4° C. with either 5 μl/ml polyclonal rabbit antisera raised against peptides derived from the unique COOH-termini of Jak3 (amino acid [a.a.] 1104-1124), carboxyl termini of human Stat5a (a.a. 775-794) or Stat5b (a.a. 777-787).^26 Ab and immunoprecipitated proteins were captured by incubation for 30 minutes with Protein A-Sepharose beads (Pharmacia, Piscataway, N.J.), sedimented for purification, and eluted by boiling in 2×SDS-sample buffer (20% Glycerol, 10% 2-Mercaptoethanol, 4.6% SDS, 0.004% Bromophenol blue in 0.125 M Tris pH 6.8) for 4 minutes. For phosphoMapk assays, approximately 25 μg of total cell lysate was dissociated in SDS-sample buffer and separated on 10% (all others on 7.5%) SDS-PAGE under reducing conditions. […]

Assay [1] deals with Jak2/Stat5a signaling pathway. Nature of the assay: Prolactin-stimulated Jak2/Stat5a signaling in rat Nb2 cells (phosphotyrosine Western blot). The conditions noted are these: increasing concentration, PRL stimulated. The class given is cell-based. The procedure: as §1
In FIG. 9A, it can be seen that NC1153 inhibits Jak3 driven transcription factor-Stat5a/b in PHA activated T-cells treated with increasing concentrations of NC1153 in a dose dependent manner as measured via EMSA analysis (upper panel). […]
Background: In western blotting, separated proteins are transferred to a membrane and probed.

The target in the next assay is Lck (Homo sapiens, UniProt P06239). Nature of the assay: Tyrosine phosphorylation of activated Lck in YT cells. In kind it is cell-based. Further details: Cellular extracts were immunoprecipitated with anti-Fyn or anti-Lck antibodies; endogenous in cells; host or cells: YT cells. The conditions noted are these: 1-100 μM, 2 hours.
Another assay concerns adapter protein Shc. Nature of the assay: Shc tyrosine phosphorylation (phospho-Western blot). In kind it is cell-based. The settings on record: phospho-Western blots. As for the experimental part: as §1
Assay [2] concerns LEW kidney allografts. Put plainly: Rat kidney allograft survival (LEW donors to ACI recipients). In kind it is in vivo.
Assay [3] relates to LEW kidney allografts. Described as above. In kind it is in vivo. The source says: Rat Kidney Transplants. Adult male ACI (RT1^a) and Lewis (LEW; RT1^1) rats (160-200 g) obtained from Harlan Sprague-Dawley (Indianapolis, Ind.) were cared for according to the guidelines of the Animal Welfare Committee. Rats were housed in light- and temperature-controlled quarters and given chow and water ad libitum. Kidneys were transplanted heterotopically from LEW donors to ACI recipients using a standard microsurgical technique of Ono and Lindsey^28. […] A control group of recipients remained untreated. […] Graft survival time was defined as animal survival of life supporting kidney transplant.
To test the in vivo effects, recipients of kidney allografts were treated with 649641P (NC1153) for 7 days beginning immediately after transplantation. […] A mean survival time (MST) and SD was calculated for each group from 5-6 experiments.
A MST and SD were calculated for each group from 5-6 experiments. The combination index (CI) values were calculated.
The source holds these as a separate data set.

In the next assay the target is Fyn (Homo sapiens, UniProt P06241). Nature of the assay: Tyrosine phosphorylation of activated Fyn in YT cells. In kind it is cell-based. Also on record: Cellular extracts were immunoprecipitated with anti-Fyn or anti-Lck antibodies; endogenous in cells; host or cells: YT cells. The conditions noted are these: 1-100 μM, 2 hours.
The mark [4] stands for this setting: 160 mg/kg NC1153 oral gavage 7 days, thereafter 3×/week up to 90 days.

Sequence of Fyn (P06241 whole entry): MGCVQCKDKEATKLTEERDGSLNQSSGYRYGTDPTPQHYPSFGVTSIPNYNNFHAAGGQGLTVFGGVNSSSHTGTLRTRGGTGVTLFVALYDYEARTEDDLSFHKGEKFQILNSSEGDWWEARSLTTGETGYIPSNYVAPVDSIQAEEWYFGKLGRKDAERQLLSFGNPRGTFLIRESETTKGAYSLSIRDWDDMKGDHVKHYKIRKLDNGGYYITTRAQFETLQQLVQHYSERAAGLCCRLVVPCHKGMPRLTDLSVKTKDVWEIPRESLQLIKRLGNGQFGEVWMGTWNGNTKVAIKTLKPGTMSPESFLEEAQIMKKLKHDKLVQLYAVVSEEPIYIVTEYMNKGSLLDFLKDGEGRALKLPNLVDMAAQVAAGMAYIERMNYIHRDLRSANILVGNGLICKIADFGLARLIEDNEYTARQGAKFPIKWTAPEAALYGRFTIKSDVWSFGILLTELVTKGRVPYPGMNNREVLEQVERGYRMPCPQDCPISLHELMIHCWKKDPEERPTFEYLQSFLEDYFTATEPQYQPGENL
Sequence of Lck (P06239 whole entry): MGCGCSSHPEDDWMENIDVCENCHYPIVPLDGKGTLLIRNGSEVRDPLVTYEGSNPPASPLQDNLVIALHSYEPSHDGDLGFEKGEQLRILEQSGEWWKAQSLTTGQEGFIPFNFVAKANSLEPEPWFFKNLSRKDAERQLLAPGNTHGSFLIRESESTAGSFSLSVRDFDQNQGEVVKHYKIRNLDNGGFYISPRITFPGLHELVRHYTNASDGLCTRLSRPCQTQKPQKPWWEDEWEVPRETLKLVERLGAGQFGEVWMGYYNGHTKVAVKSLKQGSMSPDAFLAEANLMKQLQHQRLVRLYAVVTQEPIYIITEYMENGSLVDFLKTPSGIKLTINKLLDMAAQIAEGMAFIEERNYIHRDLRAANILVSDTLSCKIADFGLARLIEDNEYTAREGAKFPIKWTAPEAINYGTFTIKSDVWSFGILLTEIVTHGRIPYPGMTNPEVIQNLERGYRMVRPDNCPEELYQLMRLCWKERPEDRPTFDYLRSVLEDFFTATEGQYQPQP

In the case of `CN(C)CC1CCCCCCCCCC(CN(C)C)C1=O` (mixture of isomers) [649641P (NC1153)], the “tyrosine phosphorylation of Stat5a/b” value in the assay on Stat5a/b is “inhibited tyrosine phosphorylation”. In assay [1], the “Jak2/Stat5a activation by prolactin” value is listed as “fails to inhibit”. At Lck, the “activity (tyrosine phosphorylation) of Lck” value is listed as “no effect; also recorded: does not block the activity; also recorded: did not inhibit”. Moreover, in the assay on adapter protein Shc, the “tyrosine phosphorylation of adapter protein Shc” value is reported as “inhibited tyrosine phosphorylation”. For the same compound, the “survival times of recipients surviving beyond 90 days” value with LEW kidney allografts [2] (setting [4]) is “exceeding 200 days”. Further, the “treated recipients surviving beyond treatment of 90 days” value in the assay with LEW kidney allografts [2] (setting [4]) is given as 75%. The values for the MST with LEW kidney allografts [2] (649641P (NC1153) 240 mg/kg/day p.o. for 14 days) and in the assay with LEW kidney allografts [3] (649641P (NC1153) 240 mg/kg/day p.o. for 7 days) were above 60 days and 47.8 ± 19.59 days, respectively. For the same compound, the “MST ± SD” value is 9.5 ± 1.4 days and 9.5 ± 1.5 days in the assay with LEW kidney allografts [3] (649641P (NC1153) 2.5 mg/kg/d i.v. × 7 days alone); 12.2 ± 1.5 days in the assay on LEW kidney allografts [3] (649641P (NC1153) 5.0 mg/kg/d i.v. × 7 days alone); 18.8 ± 1.1 days with LEW kidney allografts [3] (649641P (NC1153) 10.0 mg/kg/d i.v. × 7 days alone); 24.8 ± 6.6 days and 24.8 ± 4.6 days in the assay with LEW kidney allografts [3] (649641P (NC1153) 20.0 mg/kg/d i.v. × 7 days alone); 12.3 ± 1.26 days with LEW kidney allografts [3] (649641P (NC1153) 40.0 mg/kg/d p.o. × 7 days alone); 18.6 ± 5.32 days in the assay on LEW kidney allografts [3] (649641P (NC1153) 80.0 mg/kg/d p.o. × 7 days alone). Also, in the assay on LEW kidney allografts [3] (649641P (NC1153) 160.0 mg/kg/d p.o. × 7 days alone), the “MST ± SD” value was 31.0 ± 3.9 days. For the same compound, the “rat kidney allograft survival” value in the assay with LEW kidney allografts [3] (given alone, i.v. or oral gavage, 7 days) was “prolonged rat kidney allograft survival in a dose-dependent fashion”. Moreover, the “activity (tyrosine phosphorylation) of Fyn” value on Fyn was “no effect; also recorded: does not block the activity; also recorded: did not inhibit”.
